Results published in patent US7285618B1, “Polypeptides having neutrophil stimulating activity” (Japan Tobacco Inc., priority 2000, dated 2007).
Like-named read-outs stand apart in the source and are kept apart here. Where no end group is shown, it is not given here.

Legend:
Format in all cases: cell-based, human
HL60 cells = system: HL60 cells
Protocol: Cells were cultivated following the method as described in Example 4, except that the RPMI-1640 medium containing contained 15% of FCS, and that in order to differentiate the HL60 cells into neutrophil-like cells, a cell suspension was prepared such that the cell density in the flask would be 0.5×10^6 cells/ml at the time of addition of db-cAMP (final concentration, 0.5 mM). The β-HA secretion promoting activities of COSP-1 and fMLP were measured 24, 48 and 72 hours after the differentiation.

[1] = system: differentiated HL60 cells; settings: for secretion of β-HA upon stimulation after PTX treatment: cells treated with 50 ng/ml PTX for 16 hours; for Percentage of maximum secretion activity (%/control): control = β-HA released upon 10 μM fMLP; for β-HA secretion from differentiated HL60 cells (%/total): total = β-HA released with 0.05% Triton X-100
Protocol: a. Cultivation of HL60 Cells and Induction to the Differentiated Neutrophil-Like Cells For cultivation, heat-inactivated FCS (final concentration; 10%), streptomycin (final concentration; 100 mg/l), penicillin G (final concentration of 10^5 units/l) and RPMI-1640 culture solution containing 10 mM Hepes (pH 7.4) were used. Cells were cultivated at a cell density of 2×10^5-1.5×10^6 cells/ml in a plastic flask (80 cm^2, 260 ml, Nunc) at 37° C. under stationary conditions with a 5% of CO2 concentration and a 100% of humidity. […] c. […] Measuring β-HA Enzyme Activity The amount of β-HA secreted into the reaction supernatant was determined by measuring the absorbance at 415 nm of p-nitrophenol that was generated by an enzymatic reaction involving p-nitrophenyl N-acetyl-β-D-glucosaminide as a substrate. To be specific, 90 μl of the reaction supernatant was transferred to a 96-well Immuno plate (Nunc) and 60 μl of a substrate solution (10 mM p-nitrophenyl N-acetyl-β-D-glucosaminide/40 mM citrate, 70 mM Na2HPO4, pH 4.5) was added to initiate an enzymatic reaction. Following a 1-hr reaction at 37° C., 100 μl of a reaction quencher (400 mM glycine, pH 10.7) was added to stop the reaction and the absorbance at 415 nm was measured. As a control, cells were treated with Triton X-100 at a final concentration of 0.05% and the amount of β-HA in the supernatant was measured. As another control, the amount of β-HA secreted from cells upon stimulation with fMLP at a final concentration of 10 μM was measured.

[2] = system: undifferentiated HL60 cells; assay: Intracellular Ca2+ concentration (fura-2), undifferentiated HL60 cells
Protocol: (§1) The differentiated HL60 cells or undifferentiated HL60 cells were washed twice with a Hepes-Na solution (140 mM NaCl, 4 mM KCl, 1 mM NaH2PO4, 1 mM MgCl2, 1.25 mM CaCl2, 5 mM Hepes, 11 mM glucose, 0.2% BSA, pH 7.4). Then, Ca^2+ sensitive fluorescence reagent, fura-2/AM, was added to the cell suspension (4 ml: final concentration, 4 μM). The reaction mixture was then shaken gently at room temperature for 60 minutes, shielded from light in order to incorporate fura-2 into the HL60 cells. Subsequently, the cells were washed twice with a Hepes-Na solution and a cell suspension was prepared at a final cell density of 1.0×10^6 cells/ml. One milliliter of the cell suspension was put into reaction cuvettes and stimulated with various samples under stirring at 30° C. Ratios of fluorescence intensity at 500 nm (F) for an excitation wavelength at 340 nm to that at 380 nm were measured with a fluorimeter (CAF-100, Japan Spectroscopic Co., Ltd.) and [Ca^2+]i was calculated following the formula: [Ca^2+]i(nM)=K×{(F−Fmin)/(Fmax−F)}×A/B, wherein
(§2) Fmax: a ratio of fluorescence intensity at 500 nm for an excitation wavelength at 340 nm to that at 380 nm after all cells were solubilized with 0.1% Triton X-100;
(§3) Fmin: a ratio of fluorescence intensity at 500-nm for an excitation wavelength at 340 nm to that at 380 nm after the whole calcium was chelated with 4 mM EGTA;
(§4) A: fluorescence intensity at 500-nm for an excitation wavelength at 380 nm, when all the calcium was chelated with EGTA;
(§5) B: fluorescence intensity at 500-nm for an excitation wavelength at 380 nm, when all cells were solubilized with Triton X-100;
(§6) K: 224 (nM) (the dissociation constant of fura-2).

[3] = system: differentiated HL60 cells; assay: Intracellular Ca2+ concentration (fura-2), differentiated HL60 cells; settings: for increase of intracellular Ca2+ concentration in the absence of extracellular Ca2+: absence of Ca2+ (−) versus presence (+); for increase in intracellular Ca2+ concentration upon stimulation after PTX treatment: cells treated with 50 ng/ml PTX for 16 hours; for intracellular Ca2+ concentration: differentiated HL60 cells (+); for intracellular Ca2+ concentration with or without extracellular Ca2+: extracellular Ca2+ present or not
Protocol: as §1, §2, §3, §4, §5, §6

[4] = system: differentiated HL60 cells; assay: Migration promoting activity (Chemotaxis Cells), differentiated HL60 cells
Protocol: The migration promoting activity of each of the polypeptides of interest was measured using Chemotaxis Cells (Kurabo) as follows: The differentiated HL60 cells or undifferentiated HL60 cells were washed three times with ice-cooled HBHS and a cell suspension was prepared at a cell density of 4×10^6 cells/ml. The cell suspension was incubated at 37° C. for 10 minutes; thereafter, 500 μl of the cell suspension was transferred to Chemotaxis Cells (2×10^6 cells/Cell), which were put on a micro-well plate filled with pre-heated (37° C.) HBHS containing 1 ml of polypeptide and incubation was performed at 37° C. for 1 hour. Then, the Chemotaxis Cells were removed from the plate and the number of cells that had migrated in each well was counted.
Migration promoting activity was expressed by a chemotaxis index, or the number of cells that migrated upon stimulation was divided by the number of cells migrated without stimuli.
The activity of the human homologues of COSP-1 and fCyt b (1-15) for promoting β-HA secretion and migration promoting activities were measured following the methods described in Examples 4 and 5, respectively. The activity for β-HA secretion was expressed by the percentage for the maximum amount of secretion upon stimulation with 10 μM of fMLP, whereas the activity for migration was expressed by a chemotaxis index, i.e., the ratio of the number of stimulated migrating cells to that of unstimulated migrating cells.

Compound	EC50 (HL60 cells; 24 h) [nM]	EC50 (HL60 cells; 48 h) [nM]	EC50 (HL60 cells; 72 h) [nM]	Max. (%/total), maximum secretion on average (HL60 cells; Differentiation 24 hr) [%/total]	Max. (%/total), maximum secretion on average (HL60 cells; Differentiation 48 hr) [%/total]	Max. (%/total), maximum secretion on average (HL60 cells; Differentiation 72 hr) [%/total]	secretion of β-HA upon stimulation after PTX treatment [1]	Percentage of maximum secretion activity (%/control) [1] [%/control]	β-HA secretion from differentiated HL60 cells (%/total) [1] [%/total]	intracellular Ca2+ concentration [2]	increase of intracellular Ca2+ concentration in the absence of extracellular Ca2+ [3]	increase in intracellular Ca2+ concentration upon stimulation after PTX treatment [3]	intracellular Ca2+ concentration [3]	intracellular Ca2+ concentration with or without extracellular Ca2+ [3]	activity for migration at the concentrations where β-HA secretion was observed ([4]; Example 12)	concentrations of migration activity relative to the concentration for β-HA secretion ([4]; Example 12)	promoted secretion of β-HA under Boc-MLF treatment ([1]; Boc-MLF treatment, data not shown)	migration promoting (attracting) activity [4]
CSCC[C@H](NC=O)C(=O)N[C@@H](CC(C)C)C(=O)N[C@@H](Cc1ccccc1)C(=O)O [fMLP, formyl methionyl-leucyl-phenylalanine, reference compound]	110	22	9.3	17.4	40.6	48.4	almost completely inhibited	100	67.4	did not increase	reduced	almost completely inhibited	increased	increased irrespective of whether extracellular Ca^2+ was present or not	also observed	observed at concentrations lower	–	–
LSFLIPAGWVLSHLDHYKRSSAA-OH [COSP-1]	1200	450	270	15.6	35.7	45.3	almost completely inhibited	93.6 ± 2.8	63.1	did not increase	reduced	almost completely inhibited	increased	increased irrespective of whether extracellular Ca^2+ was present or not	–	–	significantly suppressed	attracting activity
